Measured values as given in patent US20250368635A1, “HETEROARYL DERIVATIVE COMPOUND, AND USES THEREOF” (VORONOI, INC., priority 2022, published 2025).

Key:
[1] = system: Ba/F3 cells expressing EGFR L858R/C797S (EGFR LC); assay: Inhibition of proliferation of Ba/F3 cells expressing EGFR L858R/C797S (CellTiter-Glo, 72 h); assay type: cell-based; settings: Mus musculus, BaF3, 72 hours treatment
Description: (§1) The following experiment was performed to evaluate the inhibitory activity of the compounds according to the present invention on the proliferation of Ba/F3 cells expressing EGFR Del19/C797S (EGFR DC) and EGFR L858R/C797S (EGFR LC) mutations.
(§2) Ba/F3 cells were cultured using medium (RPMI-1640) containing 10% fetal bovine serum (FBS) and 5 ng/ml IL-3 (R&D Systems). The transduced Ba/F3 cells were cultured by adding 1 μg/ml puromycin (Invitrogen) to the same medium.
(§3) 24 hours prior to treatment with compounds, 3,000 to 5,000 cells were seeded on a well plate (white clear bottom 96 well plate, Corning). The compounds were diluted in dimethyl sulfoxide (3-fold dilution, total of 12 concentrations) and injected at 1 μl each so that the final concentration was 0.2 nM to 5 μM. After 72 hours post treatment with compounds, living cells were stored at room temperature for 10 minutes using CellTiter-Glo luminescent cell-viability reagent (Promega), and the luminescence intensity thereof was measured using a reader (Synergy Neo, Biotek). Each test was repeated three times. The result values were calculated as a cell growth rate (%) compared to the control group. A graph was created using the GraphPad Prism version 8.3.0 program, and GI50 values were calculated.

[2] = system: Ba/F3 cells expressing EGFR Del19/C797S (EGFR DC); assay: Inhibition of proliferation of Ba/F3 cells expressing EGFR Del19/C797S (CellTiter-Glo, 72 h); assay type: cell-based; settings: Mus musculus, BaF3, 72 hours treatment
Description: as §1, §2, §3

Compound	GI50 [1] [nM]	GI50 [2] [nM]
COc1cc(N2CCC3(CCOCC3)CC2)c(-c2cnn(C)c2)cc1Nc1cc(N2OCC[C@@H]2c2cccc(F)c2F)ncn1 [Example 28, (R)-6-(3-(2,3-difluorophenyl)isoxazolidin-2-yl)-N-(2-methoxy-5-(1-methyl-1H-pyrazol-4-yl)-4-(3-oxa-9-azaspiro[5.5]undecan-9-yl)phenyl)pyrimidin-4-amine]	< 100	< 100
COc1cc(N2CCC3(CC2)CC(OC)C3)c(-c2cnn(C)c2)cc1Nc1cc(N2OCC[C@@H]2c2cccc(F)c2F)ncn1 [Example 30, (R)-6-(3-(2,3-difluorophenyl)isoxazolidin-2-yl)-N-(2-methoxy-4-(2-methoxy-7-azaspiro[3.5]nonan-7-yl)-5-(1-methyl-1H-pyrazol-4-yl)phenyl)pyrimidin-4-amine]	< 100	< 100
COc1cc(N2CCC3(CC2)CC3(F)F)c(-c2cnn(C)c2)cc1Nc1cc(N2OCC[C@@H]2c2cccc(F)c2F)ncn1 [Example 32, (R)-N-(4-(1,1-difluoro-6-azaspiro[2.5]octan-6-yl)-2-methoxy-5-(1-methyl-1H-pyrazol-4-yl)phenyl)-6-(3-(2,3-difluorophenyl)isoxazolidin-2-yl)pyrimidin-4-amine]	100 to 1000	100 to 1000

Continued, values first:

GI50 [1] [nM]	GI50 [2] [nM]	Compound
100 to 1000	100 to 1000	COc1cc(N2CCC3C(C2)C3(F)F)c(-c2cnn(C)c2)cc1Nc1cc(N2OCC[C@@H]2c2cccc(F)c2F)ncn1 (stereo partly drawn) [Example 41, N-(4-(7,7-difluoro-3-azabicyclo[4.1.0]heptan-3-yl)-2-methoxy-5-(1-methyl-1H-pyrazol-4-yl)phenyl)-6-((R)-3-(2,3-difluorophenyl)isoxazolidin-2-yl)pyrimidin-4-amine]
< 100	< 100	COc1cc(N2CCC3(CCN(CCF)CC3)CC2)c(-c2cnn(C)c2)cc1Nc1cc(N2OCC[C@@H]2c2cccc(F)c2F)ncn1 [Example 50, (R)-6-(3-(2,3-difluorophenyl)isoxazolidin-2-yl)-N-(4-(9-(2-fluoroethyl)-3,9-diazaspiro[5.5]undecan-3-yl)-2-methoxy-5-(1-methyl-1H-pyrazol-4-yl)phenyl)pyrimidin-4-amine]
